Peptide text beside a SMILES is read from it.
Key:
hamsters = assay: Control of pregnancy in hamsters, compound in phosphate buffer pH 7.1 subcutaneously or orally; type: in vivo, hamster
Hamster = assay: Female Anti-Fertility test (Table I), implants counted at autopsy; type: in vivo; settings: subc., saline, days (-4)-(-1), autopsy day 10
Procedure: In one study carried out with hamsters Thr-Pro-Arg-Lys as the diacetate was administered subcutaneously in isotonic solution at dosage levels of 2, […], once daily starting on the day of postovulatory discharge (-4) prior to mating. Treatment was continued until the fourth day after ovulation. The animals were mated and then sacrificed on the tenth day. The uterus was opened, and the number of implants counted.
TEST Female Anti-Fertility
ROUTE OF ADMINISTRATION Subc.
Once daily for four days, starting on the day
of postovulatory discharge, prior to mating.

Question: With C[C@@H](O)[C@H](N)C(=O)N1CCC[C@H]1C(=O)N[C@@H](CCCNC(=N)N)C(=O)N[C@@H](CCCCN)C(=O)O [Thr-Pro-Arg-Lys, threonyl-prolyl-arginyl-lysine] (H-TPRK-OH) as the compound, how does the number of pregnancies (hamsters; administered orally at 35 to 50 μg/100 gm/day) read?
Answer: Its number of pregnancies is “reduced to zero”.

Question: And the “number of implantations per animal” value (hamsters; subcutaneous, phosphate buffer pH 7.1, at 0.7 mcg/gm/day)?
Answer: The value was “less than one”.

Question: What about the “effective dose (number of implantations per animal reduced to less than one)” value (hamsters; subcutaneous, phosphate buffer pH 7.1, calculated as free base) of the same compound?
Answer: Its value is 0.7 mcg/gm/day.

Question: What about the “Average No. of Implants” value (Hamster; daily dose 2.0 μg/100 mg) of the same compound?
Answer: The value was 0.5.

Question: And the “Total No. of Normal Fetuses” value (Hamster; daily dose 2.0 μg/100 mg)?
Answer: The value was 5.

Question: What about the “Total No. of Resorbing Fetuses” value (Hamster; daily dose 2.0 μg/100 mg) of the same compound?
Answer: The value was 0.

Question: And the “No. of Animals with Implantations” value (Hamster; daily dose 2.0 μg/100 mg, 10/10 sperm +)?
Answer: The value was 1.

Question: And the “Average No. of Implants” value (Hamster; daily dose 10.0 μg/100 mg)?
Answer: The value was 4.6.

Question: And the “Total No. of Normal Fetuses” value (Hamster; daily dose 10.0 μg/100 mg)?
Answer: Its value is 46.

Question: What about the “Total No. of Resorbing Fetuses” value (Hamster; daily dose 10.0 μg/100 mg) of the same compound?
Answer: The value was 3.

Question: And the “No. of Animals with Implantations” value (Hamster; daily dose 10.0 μg/100 mg, 10/10 sperm +)?
Answer: Its value is 4.

Question: What about the “Average No. of Implants” value (Hamster; daily dose 100.0 μg/100 mg) of the same compound?
Answer: Its value is 5.9.

Question: And the “Total No. of Normal Fetuses” value (Hamster; daily dose 100.0 μg/100 mg)?
Answer: The value was 53.

Question: And the “Total No. of Resorbing Fetuses” value (Hamster; daily dose 100.0 μg/100 mg)?
Answer: The value was 1.

Question: What about the “No. of Animals with Implantations” value (Hamster; daily dose 100.0 μg/100 mg, 9/10 sperm +) of the same compound?
Answer: The value was 4.

Reference: patent US4016259A, “Contraceptive polypeptides” (Research Corporation, priority 1975, dated 1977)
